# Species on record: Rattus norvegicus
# Test: DrugMatrix - Regimen: Daily Repeat
# Format: toxicity, organism-based, Sprague-Dawley
# Design: regimen Daily Repeat, gender Male, age 6-8 weeks
# Settings: in vivo, po, route oral GAVAGE, vehicle 100 % WATER; for ABSOLUTE BASOPHIL / ABSOLUTE EOSINOPHIL / ABSOLUTE LYMPHOCYTE / ABSOLUTE MONOCYTE / ABSOLUTE SEGMENTED NEUTROPHIL / BASOPHIL / EOSINOPHIL / ERYTHROCYTE COUNT / HEMATOCRIT / HEMOGLOBIN / LEUKOCYTE COUNT / LYMPHOCYTE / MEAN CORPUSCULAR HEMOGLOBIN / MEAN CORPUSCULAR HEMOGLOBIN CONCENTRATION / MEAN CORPUSCULAR VOLUME / MONOCYTE / NEUTROPHIL / NUCLEATED RED BLOOD CELLS / PLATELET COUNT: tissue Blood; for ALANINE AMINOTRANSFERASE / ALBUMIN / ALKALINE PHOSPHATASE / ASPARTATE AMINOTRANSFERASE / BLOOD UREA NITROGEN / CARBON DIOXIDE / CHLORIDE / CHOLESTEROL / CREATINE PHOSPHOKINASE / CREATININE / GLUCOSE / LACTATE DEHYDROGENASE / LIPASE / PHOSPHORUS / POTASSIUM / SODIUM / TOTAL BILIRUBIN / TOTAL PROTEIN / URIC ACID: tissue Plasma
# [1] = 11 mg/kg, 120 h, dose level Low, time 5 day
# [2] = 40 mg/kg, 72 h, dose level High, time 3 day
# [3] = 40 mg/kg, 120 h, dose level High, time 5 day
smiles,measurement,setting,value
CN(C)C(=O)Oc1cccc([N+](C)(C)C)c1.[Br-] [NEOSTIGMINE BROMIDE],ABSOLUTE BASOPHIL,[1],0 CELLS/uL
same,ABSOLUTE EOSINOPHIL,[1],28.67 CELLS/uL
same,ABSOLUTE LYMPHOCYTE,[1],4930.67 CELLS/uL
same,ABSOLUTE MONOCYTE,[1],109.33 CELLS/uL
same,ABSOLUTE SEGMENTED NEUTROPHIL,[1],798 CELLS/uL
same,BASOPHIL,[1],0%
same,EOSINOPHIL,[1],0.33%
same,ERYTHROCYTE COUNT,[1],5.49 x10E6/uL
same,HEMATOCRIT,[1],34.3%
same,HEMOGLOBIN,[1],13.23 G/DL
same,LEUKOCYTE COUNT,[1],5.87 x10E3/uL
same,LYMPHOCYTE,[1],83%
same,MEAN CORPUSCULAR HEMOGLOBIN,[1],24.1 pg
same,MEAN CORPUSCULAR HEMOGLOBIN CONCENTRATION,[1],38.57 G/DL
same,MEAN CORPUSCULAR VOLUME,[1],62.5 fL
same,MONOCYTE,[1],1.67%
same,NEUTROPHIL,[1],15%
same,NUCLEATED RED BLOOD CELLS,[1],0 /100WBC
same,PLATELET COUNT,[1],970 x10E3/uL
same,ALANINE AMINOTRANSFERASE,[1],54 u/L
same,ALBUMIN,[1],4 G/DL
same,ALKALINE PHOSPHATASE,[1],382.33 u/L
same,ASPARTATE AMINOTRANSFERASE,[1],83 u/L
same,BLOOD UREA NITROGEN,[1],14 mg/dL
same,CARBON DIOXIDE,[1],32.33 mmol/L
same,CHLORIDE,[1],99.33 MEQ/L
same,CHOLESTEROL,[1],67.33 mg/dL
same,CREATINE PHOSPHOKINASE,[1],225.33 u/L
same,CREATININE,[1],0.14 mg/dL
same,GLUCOSE,[1],155.33 mg/dL
same,LACTATE DEHYDROGENASE,[1],116 u/L
same,LIPASE,[1],9.33 u/L
same,PHOSPHORUS,[1],11.53 mg/dL
same,POTASSIUM,[1],5.88 MEQ/L
same,SODIUM,[1],144.8 MEQ/L
same,TOTAL BILIRUBIN,[1],0.17 mg/dL
same,TOTAL PROTEIN,[1],5.8 G/DL
same,URIC ACID,[1],0.8 mg/dL
same,ABSOLUTE BASOPHIL,[2],0 CELLS/uL
same,ABSOLUTE EOSINOPHIL,[2],29.33 CELLS/uL
same,ABSOLUTE LYMPHOCYTE,[2],8073 CELLS/uL
same,ABSOLUTE MONOCYTE,[2],28.67 CELLS/uL
same,ABSOLUTE SEGMENTED NEUTROPHIL,[2],702.33 CELLS/uL
same,BASOPHIL,[2],0%
same,EOSINOPHIL,[2],0.33%
same,ERYTHROCYTE COUNT,[2],5.28 x10E6/uL
same,HEMATOCRIT,[2],32.2%
same,HEMOGLOBIN,[2],12.53 G/DL
same,LEUKOCYTE COUNT,[2],8.83 x10E3/uL
same,LYMPHOCYTE,[2],91.33%
same,MEAN CORPUSCULAR HEMOGLOBIN,[2],23.7 pg
same,MEAN CORPUSCULAR HEMOGLOBIN CONCENTRATION,[2],38.93 G/DL
same,MEAN CORPUSCULAR VOLUME,[2],60.93 fL
same,MONOCYTE,[2],0.33%
same,NEUTROPHIL,[2],8%
same,NUCLEATED RED BLOOD CELLS,[2],0 /100WBC
same,PLATELET COUNT,[2],857.33 x10E3/uL
same,ALANINE AMINOTRANSFERASE,[2],53.67 u/L
same,ALBUMIN,[2],3.97 G/DL
same,ALKALINE PHOSPHATASE,[2],316.33 u/L
same,ASPARTATE AMINOTRANSFERASE,[2],90.33 u/L
same,BLOOD UREA NITROGEN,[2],13.33 mg/dL
same,CARBON DIOXIDE,[2],31.67 mmol/L
same,CHLORIDE,[2],100.67 MEQ/L
same,CHOLESTEROL,[2],85 mg/dL
same,CREATINE PHOSPHOKINASE,[2],289 u/L
same,CREATININE,[2],0.15 mg/dL
same,GLUCOSE,[2],135.33 mg/dL
same,LACTATE DEHYDROGENASE,[2],137.33 u/L
same,LIPASE,[2],9 u/L
same,PHOSPHORUS,[2],11.43 mg/dL
same,POTASSIUM,[2],6.3 MEQ/L
same,SODIUM,[2],143.1 MEQ/L
same,TOTAL BILIRUBIN,[2],0.2 mg/dL
same,TOTAL PROTEIN,[2],6.03 G/DL
same,URIC ACID,[2],0.83 mg/dL
same,ABSOLUTE BASOPHIL,[3],0 CELLS/uL
same,ABSOLUTE EOSINOPHIL,[3],26.33 CELLS/uL
same,ABSOLUTE LYMPHOCYTE,[3],8117.33 CELLS/uL
same,ABSOLUTE MONOCYTE,[3],169.67 CELLS/uL
same,ABSOLUTE SEGMENTED NEUTROPHIL,[3],1053.33 CELLS/uL
same,BASOPHIL,[3],0%
same,EOSINOPHIL,[3],0.33%
same,ERYTHROCYTE COUNT,[3],5.39 x10E6/uL
same,HEMATOCRIT,[3],33.9%
same,HEMOGLOBIN,[3],13 G/DL
same,LEUKOCYTE COUNT,[3],9.37 x10E3/uL
same,LYMPHOCYTE,[3],87%
same,MEAN CORPUSCULAR HEMOGLOBIN,[3],24.13 pg
same,MEAN CORPUSCULAR HEMOGLOBIN CONCENTRATION,[3],38.37 G/DL
same,MEAN CORPUSCULAR VOLUME,[3],62.93 fL
same,MONOCYTE,[3],1.67%
same,NEUTROPHIL,[3],11%
same,NUCLEATED RED BLOOD CELLS,[3],0.33 /100WBC
same,PLATELET COUNT,[3],1139.67 x10E3/uL
same,ALANINE AMINOTRANSFERASE,[3],52.33 u/L
same,ALBUMIN,[3],3.97 G/DL
same,ALKALINE PHOSPHATASE,[3],386 u/L
same,ASPARTATE AMINOTRANSFERASE,[3],89.67 u/L
same,BLOOD UREA NITROGEN,[3],15.33 mg/dL
same,CARBON DIOXIDE,[3],32.33 mmol/L
same,CHLORIDE,[3],102.33 MEQ/L
same,CHOLESTEROL,[3],79.33 mg/dL
same,CREATINE PHOSPHOKINASE,[3],258 u/L
same,CREATININE,[3],0.16 mg/dL
same,GLUCOSE,[3],148.67 mg/dL
same,LACTATE DEHYDROGENASE,[3],117.33 u/L
same,LIPASE,[3],9.33 u/L
same,PHOSPHORUS,[3],11.17 mg/dL
same,POTASSIUM,[3],6.13 MEQ/L
same,SODIUM,[3],148.3 MEQ/L
same,TOTAL BILIRUBIN,[3],0.2 mg/dL
same,TOTAL PROTEIN,[3],5.87 G/DL
same,URIC ACID,[3],0.43 mg/dL
